Experimental data: patent publication US10844057B2, “Process for preparing JAK inhibitors and intermediates thereof” (priority 2018, dated 2020)
Where two headings read alike, the source gives them in different places.

Experiments:
Tyk2 = Tyk2 (Homo sapiens (Human), UniProt P29597); experiment: Biochemical JAK kinase assay (LanthaScreen), Tyk2; conditions: converted from pIC50 using Cheng-Prusoff; ATP 10 μM
Procedure: (§1) Assay 1: Biochemical JAK Kinase Assays
(§2) A panel of four LanthaScreen JAK biochemical assays (JAK1, 2, 3 and Tyk2) were carried in a common kinase reaction buffer (50 mM HEPES, pH 7.5, 0.01% Brij-35, 10 mM MgCl2, and 1 mM EGTA). Recombinant GST-tagged JAK enzymes and a GFP-tagged STAT1 peptide substrate were obtained from Life Technologies.
(§3) Serially diluted compounds were pre-incubated with each of the four JAK enzymes and the substrate in white 384-well microplates (Corning) at ambient temperature for 1 h. ATP was subsequently added to initiate the kinase reactions in 10 μL total volume, with 1% DMSO. […] Kinase reactions were allowed to proceed for 1 hour at ambient temperature before a 10 μL preparation of EDTA (10 mM final concentration) and Tb-anti-pSTAT1 (pTyr701) antibody (Life Technologies, 2 nM final concentration) in TR-FRET dilution buffer (Life Technologies) was added. The plates were allowed to incubate at ambient temperature for 1 h before being read on the EnVision reader (Perkin Elmer). Emission ratio signals (520 nm/495 nm) were recorded and utilized to calculate the percent inhibition values based on DMSO and background controls.
(§4) For dose-response analysis, percent inhibition data were plotted vs. compound concentrations, and IC50 values were determined from a 4-parameter robust fit model with the Prism software (GraphPad Software). Results were expressed as pIC50 (negative logarithm of IC50) and subsequently converted to pKi (negative logarithm of dissociation constant, Ki) using the Cheng-Prusoff equation.

JAK3 = JAK3 (Homo sapiens (Human), UniProt P52333); experiment: Biochemical JAK kinase assay (LanthaScreen), JAK3; conditions: converted from pIC50 using Cheng-Prusoff; ATP 1.6 μM
Chain of JAK3 (P52333 whole entry): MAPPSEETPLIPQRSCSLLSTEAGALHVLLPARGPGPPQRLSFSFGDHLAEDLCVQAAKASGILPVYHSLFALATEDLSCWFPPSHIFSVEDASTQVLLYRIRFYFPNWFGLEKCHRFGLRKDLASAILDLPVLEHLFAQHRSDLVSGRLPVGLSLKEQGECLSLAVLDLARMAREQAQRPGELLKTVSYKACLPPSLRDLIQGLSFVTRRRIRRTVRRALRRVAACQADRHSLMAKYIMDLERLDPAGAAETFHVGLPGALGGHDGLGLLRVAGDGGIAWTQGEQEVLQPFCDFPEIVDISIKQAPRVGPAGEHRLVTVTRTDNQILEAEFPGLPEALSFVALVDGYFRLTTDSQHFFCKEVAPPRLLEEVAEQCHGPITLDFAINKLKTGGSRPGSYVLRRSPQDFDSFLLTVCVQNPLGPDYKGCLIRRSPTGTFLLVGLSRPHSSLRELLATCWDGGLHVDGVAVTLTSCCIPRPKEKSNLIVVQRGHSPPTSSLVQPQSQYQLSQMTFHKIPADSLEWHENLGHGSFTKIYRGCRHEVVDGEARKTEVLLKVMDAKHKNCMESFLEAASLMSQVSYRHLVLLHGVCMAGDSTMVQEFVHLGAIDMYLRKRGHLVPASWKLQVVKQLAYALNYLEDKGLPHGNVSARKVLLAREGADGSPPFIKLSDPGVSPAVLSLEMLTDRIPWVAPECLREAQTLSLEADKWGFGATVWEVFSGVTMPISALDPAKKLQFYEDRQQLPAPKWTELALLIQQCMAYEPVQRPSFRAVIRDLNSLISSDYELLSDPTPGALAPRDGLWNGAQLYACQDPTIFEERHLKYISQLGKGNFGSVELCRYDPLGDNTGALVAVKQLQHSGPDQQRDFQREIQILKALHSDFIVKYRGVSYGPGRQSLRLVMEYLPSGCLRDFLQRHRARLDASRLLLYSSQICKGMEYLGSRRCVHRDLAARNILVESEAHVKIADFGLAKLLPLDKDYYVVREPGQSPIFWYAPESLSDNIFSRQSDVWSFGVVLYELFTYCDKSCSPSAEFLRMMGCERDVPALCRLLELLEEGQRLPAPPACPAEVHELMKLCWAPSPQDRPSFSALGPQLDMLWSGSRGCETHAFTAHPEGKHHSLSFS
Procedure: as §1, §2, §3, §4

JAK1 = JAK1 (Homo sapiens (Human), UniProt P23458); experiment: Biochemical JAK kinase assay (LanthaScreen), JAK1; conditions: converted from pIC50 using Cheng-Prusoff; ATP 25 μM
Chain of JAK1 (P23458 whole entry): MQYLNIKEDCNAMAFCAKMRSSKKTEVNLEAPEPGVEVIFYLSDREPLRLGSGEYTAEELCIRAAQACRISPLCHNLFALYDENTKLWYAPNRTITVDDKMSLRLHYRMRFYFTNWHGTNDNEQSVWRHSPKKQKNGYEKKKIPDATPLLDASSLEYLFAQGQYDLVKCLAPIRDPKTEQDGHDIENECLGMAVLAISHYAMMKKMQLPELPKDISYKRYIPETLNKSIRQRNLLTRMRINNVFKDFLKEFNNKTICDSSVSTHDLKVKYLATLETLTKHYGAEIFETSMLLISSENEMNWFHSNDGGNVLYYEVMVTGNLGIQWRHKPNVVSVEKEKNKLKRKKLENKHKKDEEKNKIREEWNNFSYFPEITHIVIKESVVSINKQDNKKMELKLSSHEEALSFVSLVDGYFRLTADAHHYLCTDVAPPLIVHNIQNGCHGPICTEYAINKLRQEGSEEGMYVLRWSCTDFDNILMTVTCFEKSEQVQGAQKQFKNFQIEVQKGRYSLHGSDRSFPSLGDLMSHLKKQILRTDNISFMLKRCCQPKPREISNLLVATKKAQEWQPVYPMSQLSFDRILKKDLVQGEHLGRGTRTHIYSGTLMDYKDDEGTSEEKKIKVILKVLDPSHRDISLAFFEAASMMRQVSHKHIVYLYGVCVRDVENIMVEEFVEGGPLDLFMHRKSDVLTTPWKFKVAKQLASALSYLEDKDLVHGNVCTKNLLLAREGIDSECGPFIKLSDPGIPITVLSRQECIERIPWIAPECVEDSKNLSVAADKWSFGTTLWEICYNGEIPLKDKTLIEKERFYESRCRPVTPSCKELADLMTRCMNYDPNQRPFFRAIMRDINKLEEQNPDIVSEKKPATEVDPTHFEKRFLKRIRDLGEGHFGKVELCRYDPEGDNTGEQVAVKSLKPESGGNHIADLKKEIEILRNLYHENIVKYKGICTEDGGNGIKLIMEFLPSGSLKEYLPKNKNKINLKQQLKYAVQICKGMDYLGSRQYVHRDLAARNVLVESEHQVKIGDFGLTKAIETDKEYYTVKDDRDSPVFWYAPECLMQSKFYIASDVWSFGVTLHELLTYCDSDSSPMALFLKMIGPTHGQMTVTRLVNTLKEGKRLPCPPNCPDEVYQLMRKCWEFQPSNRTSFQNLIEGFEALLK
Procedure: as §1, §2, §3, §4

[1] = system: IL-2 stimulated STAT5 phosphorylation in Tall-1 human T cell line; experiment: Inhibition of IL-2 stimulated pSTAT5 in Tall-1 T cells; assay type: cell-based; conditions: IL-2 300 ng/mL, pSTAT5 AlphaLisa, Tall-1 cells, read-out: Tall-1 pIC50 (converted)
Procedure: Assay 2: Inhibition of IL-2 Stimulated pSTAT5 in Tall-1 T Cells
The potency of test compounds for inhibition of interleukin-2 (IL-2) stimulated STAT5 phosphorylation was measured in the Tall-1 human T cell line (DSMZ) using AlphaLisa.
Phosphorylated STAT5 was measured via the AlphaLISA SureFire Ultra pSTAT5 (Tyr694/699) kit (PerkinElmer).
Compounds were serially diluted in DMSO and dispensed acoustically to empty wells. Assay media (phenol red-free DMEM (Life Technologies) supplemented with 10% FBS (ATCC)) was dispensed (4 μL/well) and plates shaken at 900 rpm for 10 mins. Cells were seeded at 45,000 cells/well in assay media (4 μL/well), and incubated at 37° C., 5% CO2 for 1 hour, followed by the addition of IL-2 (R&D Systems; final concentration 300 ng/mL) in pre-warmed assay media (4 μL) for 30 minutes. […] The lysate was shaken at 900 rpm for 10 minutes at room temperature (RT). Phosphorylated STAT5 was measured via the pSTAT5 AlphaLisa kit (PerkinElmer). Freshly prepared acceptor bead mixture was dispensed onto lysate (5 μL) under green filtered <100 lux light. Plates were shaken at 900 rpm for 2 mins, briefly spun down, and incubated for 2 hrs at RT in the dark. Donor beads were dispensed (5 μL) under green filtered <100 lux light. Plates were shaken at 900 rpm for 2 minutes, briefly spun down, and incubated overnight at RT in the dark. Luminescence was measured with excitation at 689 nm and emission at 570 nm using an EnVision plate reader (PerkinElmer) under green filtered <100 lux light.
To determine the inhibitory potency of test compounds in response to IL-2, the average emission intensity of beads bound to pSTAT5 was measured in a human T cell line. IC50 values were determined from analysis of the inhibition curves of signal intensity versus compound concentration. Data are expressed as pIC50 (negative decadic logarithm IC50) values (mean±standard deviation).

[2] = Lung and plasma exposure in mice after oral aspiration; assay type: in vivo; conditions: mouse, other: oral aspiration, 50 µg/animal; for concentration at 5 h: Balb/c mice, 1 mg/mL, 50 μL via oral aspiration
Procedure: Adult Balb/c mice from Harlan were used in the assay. […] Animals were placed in lateral recumbency post dose and monitored for full recovery from anesthesia before being returned to their home cage. Four hours later, animals were once again briefly anesthetized and challenged with either vehicle or IL-13 (0.03 μg total dose delivered, 50 μL total volume) via oral aspiration before being monitored for recovery from anesthesia and returned to their home cage. One hour after vehicle or IL-13 administration, whole blood and lungs were collected for both pSTAT6 detection in lung homogenates using a Perkin Elmer AlphaLISA® SureFire® Ultra™ HVp-STAT6 (Tyr641) assay kit and for total drug concentration analysis in both lung and plasma. Blood samples were centrifuged (Eppendorf centrifuge, 5804R) for 4 minutes at approximately 12,000 rpm at 4° C. to collect plasma. […] Plasma and lung levels of test compound were determined by LC-MS analysis against analytical standards constructed into a standard curve in the test matrix. A lung to plasma ratio was determined as the ratio of the lung concentration in ng/g to the plasma concentration in ng/mL at 5 hours.

Chain of Tyk2 (P29597 whole entry): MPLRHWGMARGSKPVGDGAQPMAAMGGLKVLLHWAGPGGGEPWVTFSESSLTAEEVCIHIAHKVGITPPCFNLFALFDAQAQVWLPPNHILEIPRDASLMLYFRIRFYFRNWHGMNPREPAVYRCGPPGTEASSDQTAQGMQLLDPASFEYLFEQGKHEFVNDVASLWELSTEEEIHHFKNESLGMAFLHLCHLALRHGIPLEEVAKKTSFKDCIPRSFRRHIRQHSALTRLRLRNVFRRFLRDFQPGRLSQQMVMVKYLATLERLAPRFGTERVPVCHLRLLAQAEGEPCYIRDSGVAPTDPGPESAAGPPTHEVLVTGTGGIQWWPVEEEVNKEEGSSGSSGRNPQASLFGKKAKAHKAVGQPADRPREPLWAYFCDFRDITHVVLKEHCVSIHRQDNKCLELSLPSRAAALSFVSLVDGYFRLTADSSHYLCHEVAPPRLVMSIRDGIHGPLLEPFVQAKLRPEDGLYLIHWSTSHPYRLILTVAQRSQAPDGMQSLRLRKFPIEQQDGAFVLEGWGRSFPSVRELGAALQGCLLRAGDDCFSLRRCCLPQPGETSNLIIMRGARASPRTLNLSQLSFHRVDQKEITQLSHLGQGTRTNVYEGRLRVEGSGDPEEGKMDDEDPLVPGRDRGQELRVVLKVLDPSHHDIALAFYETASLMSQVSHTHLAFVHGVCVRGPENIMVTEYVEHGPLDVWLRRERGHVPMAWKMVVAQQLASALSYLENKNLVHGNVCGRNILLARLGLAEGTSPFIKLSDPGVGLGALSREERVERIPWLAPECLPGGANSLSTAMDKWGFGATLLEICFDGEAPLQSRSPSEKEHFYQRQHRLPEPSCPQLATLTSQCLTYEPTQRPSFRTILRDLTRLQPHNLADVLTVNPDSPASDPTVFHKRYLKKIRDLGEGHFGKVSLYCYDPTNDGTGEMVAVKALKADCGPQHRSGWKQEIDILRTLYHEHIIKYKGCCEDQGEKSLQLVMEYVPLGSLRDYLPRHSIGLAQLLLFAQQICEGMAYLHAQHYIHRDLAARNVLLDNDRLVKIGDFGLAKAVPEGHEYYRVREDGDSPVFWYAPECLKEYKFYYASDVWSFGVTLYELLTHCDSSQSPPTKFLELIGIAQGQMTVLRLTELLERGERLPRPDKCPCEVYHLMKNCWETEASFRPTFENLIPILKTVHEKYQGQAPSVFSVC

**Q.** Which “Tyk2 pKi” value (Tyk2) does the source give for CCc1cc(O)c(F)cc1-c1ccc2c(-c3nc4c([nH]3)CN(C(C)C)[C@H](C(=O)N3CC(N(C)C)C3)C4)n[nH]c2c1 [Example 8, (S)-(3-(dimethylamino)azetidin-1-yl)(2-(6-(2-ethyl-5-fluoro-4-hydroxyphenyl)-1H-indazol-3-yl)-5-isopropyl-4,5,6,7-tetrahydro-3H-imidazo[4,5-c]pyridin-6-yl)methanone] here?
**A.** 9.5

**Q.** What about the “JAK3 pKi” value (JAK3) of the same compound?
**A.** 10.1

**Q.** And the “JAK1 pKi” value (JAK1)?
**A.** 10.4

**Q.** What about the IC50 [1] of the same compound?
**A.** 1.58 nM

**Q.** And the Kp at 5 h ([2]; Balb/c, lung and plasma, lung ng/g to plasma ng/mL, mice, read-out: Lung to Plasma ratio at 5 hr)?
**A.** 381

**Q.** And the concentration at 5 h ([2]; lung, read-out: Lung Concentration (ng/g) at 5 hr)?
**A.** 22100 ± 5550 ng/g

**Q.** What about the concentration at 5 h ([2]; plasma, read-out: Plasma Concentration (ng/mL) at 5 hr) of the same compound?
**A.** 58 ± 17 ng/mL
